Data published in patent EP2179735A1 (WORLD-TRADE IMPORT-EXPORT, WTIE, A.G., priority 2007, dated 2009).

How the values were obtained:
[1] = cited from earlier work
[2] = cited from earlier work; remark: listed apart in the source
[3] = tested on: convulsions induced (MES); test: MES test (convulsions produced by electroshocks) in mice, drugs alone and in combination, isobolographic analysis; assay type: in vivo
Description: MES test in rodents is broadly accepted as an experimental model of tonic-clonic convulsions or certain partial convulsions with or without secondary generalization. Brain concentrations were also assessed with anti-epilepsy compounds to monitor whether effects result in a pharmacodynamic and/or pharmacokinetic interaction.
Tests were carried out in Swiss, male, adult, albine mice with a weight between 22-26 gr.
Firstly, separately administered medicament effects were studied.

[4] = in vivo; cited from earlier work
[5] = CZP 20 mg/kg peritoneally, 30 minutes before MES test
[6] = CZP 25 mg/kg peritoneally, 30 minutes before MES test
[7] = CZP 30 mg/kg peritoneally, 30 minutes before MES test
[8] = CZP 35 mg/kg peritoneally, 30 minutes before MES test
[9] = CZP 40 mg/kg peritoneally, 30 minutes before MES test
[10] = LTG 3 mg/kg peritoneally, 60 minutes before MES test
[11] = LTG 4 mg/kg peritoneally, 60 minutes before MES test
[12] = LTG 5 mg/kg peritoneally, 60 minutes before MES test
[13] = LTG 6 mg/kg peritoneally, 60 minutes before MES test
[14] = LTG 8 mg/kg peritoneally, 60 minutes before MES test

**Q.** For `O=C1CN=C(c2ccccc2Cl)c2cc([N+](=O)[O-])ccc2N1` [CZP, Clonazepam], which “attachment to plasma proteins” value [1] is on record?
**A.** 85%

**Q.** And the bioavailability ([2]; orally administered)?
**A.** 90%

**Q.** What about the “recovered in urine in unaltered form” value ([2]; urine, po) of the same compound?
**A.** Less than 0.5%

**Q.** What about the “% (Percentage of protection against MES test)” value [3, 5] of the same compound?
**A.** 12.5%

**Q.** And the “P/T (Number of protected animals against electroconvulsion / Total number of animals challenged with MES test)” value [3, 5]?
**A.** 1/8

**Q.** What about the “% (Percentage of protection against MES test)” value [3, 6] of the same compound?
**A.** 25%

**Q.** And the “P/T (Number of protected animals against electroconvulsion / Total number of animals challenged with MES test)” value [3, 6]?
**A.** 2/8

**Q.** What about the “% (Percentage of protection against MES test)” value [3, 7] of the same compound?
**A.** 50%

**Q.** And the “P/T (Number of protected animals against electroconvulsion / Total number of animals challenged with MES test)” value [3, 7]?
**A.** 4/8

**Q.** What about the “% (Percentage of protection against MES test)” value [3, 8] of the same compound?
**A.** 75%

**Q.** What about the “P/T (Number of protected animals against electroconvulsion / Total number of animals challenged with MES test)” value [3, 8] of the same compound?
**A.** 6/8

**Q.** And the “% (Percentage of protection against MES test)” value [3, 9]?
**A.** 100%

**Q.** And the “P/T (Number of protected animals against electroconvulsion / Total number of animals challenged with MES test)” value [3, 9]?
**A.** 8/8

**Q.** Which “attachment to plasma proteins” value [1] does the source give for `Nc1nnc(-c2cccc(Cl)c2Cl)c(N)n1` [LTG, Lamotrigine] here?
**A.** about 55%

**Q.** What about the “adverse event: asthenia” value [4] of the same compound?
**A.** 10%

**Q.** What about the “adverse event: ataxia” value [4] of the same compound?
**A.** 11%

**Q.** What about the “adverse event: diplopy” value [4] of the same compound?
**A.** 14%

**Q.** And the “adverse event: generalized allergic rash” value [4]?
**A.** 2-3%

**Q.** What about the “adverse event: headache” value [4] of the same compound?
**A.** 12%

**Q.** And the “adverse event: skin rash” value [4]?
**A.** 3%

**Q.** What about the “adverse event: somnolence” value [4] of the same compound?
**A.** 13%

**Q.** What about the “adverse event: vertigo” value [4] of the same compound?
**A.** 14%

**Q.** And the “removed without changes by feces” value ([2]; feces)?
**A.** 2%

**Q.** What about the drug unalteredly removed ([2]; in vivo) of the same compound?
**A.** 10%

**Q.** What about the “% (Percentage of protection against MES test)” value [3, 10] of the same compound?
**A.** 0%

**Q.** And the “P/T (Number of protected animals against electroconvulsion / Total number of animals challenged with MES test)” value [3, 10]?
**A.** 0/8

**Q.** And the “% (Percentage of protection against MES test)” value [3, 11]?
**A.** 25%

**Q.** What about the “P/T (Number of protected animals against electroconvulsion / Total number of animals challenged with MES test)” value [3, 11] of the same compound?
**A.** 2/8

**Q.** What about the “% (Percentage of protection against MES test)” value [3, 12] of the same compound?
**A.** 50%

**Q.** And the “P/T (Number of protected animals against electroconvulsion / Total number of animals challenged with MES test)” value [3, 12]?
**A.** 4/8

**Q.** What about the “% (Percentage of protection against MES test)” value [3, 13] of the same compound?
**A.** 75%

**Q.** What about the “P/T (Number of protected animals against electroconvulsion / Total number of animals challenged with MES test)” value [3, 13] of the same compound?
**A.** 6/8

**Q.** And the “% (Percentage of protection against MES test)” value [3, 14]?
**A.** 100%

**Q.** And the “P/T (Number of protected animals against electroconvulsion / Total number of animals challenged with MES test)” value [3, 14]?
**A.** 8/8
